Among the data in patent US9540343B2 (Gilead Sciences, Inc., priority 2011, dated 2017) are inhibition and CC50 values, retold here.

A word on the inhibition: it is the percentage by which the read-out fell short of the control. A word on the CC50: it is the concentration giving 50% cytotoxicity. Read a low CC50 as harm at low concentration.

For series [1], the system named is HIV-IIIb. Kind of series: Test A: Antiviral assay in MT4 cells. It is filed as cell-based, HIV-1. The following applies: Human immunodeficiency virus 1, IIIB, MT4, 120 h, read-out: % inhibition at 2 μM, percent inhibition of virus-induced cell killing, from dose response curve at 2 uM drug; MT-4 cells infected with HIV-IIIb, 5 days, CellTiter-Glo. Background: Cellular ATP, detected with luciferase, serves as a proxy for viable cell number.

The nature of series [2]: in vitro. The following applies: human, uninfected MT-4 cells, CC50 (nM), same protocol as Test A, CellTiter-Glo. Summed up: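 Cytoprotection read-out: CellTiter-Glo chemiluminescence after 5 days at 37 °C of HIV-IIIb-infected MT-4 cells (m.o.i. 0.003) with compound in 10-point 3-fold dilutions, quadruplicate, 10% FBS. Cytotoxicity (CC50) measured identically without virus.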

As for `N#Cc1nn(CC(=O)N[C@@H](Cc2cc(F)cc(F)c2)c2ncccc2-c2ccc(F)c(C(N)=O)c2)c2c1CCC2` [Example 211C, (S)-5-(2-(1-(2-(3-cyano-5,6-dihydrocyclopenta[c]pyrazol-1(4H)-yl)acetamido)-2-(3,5-difluorophenyl)ethyl)pyridin-3-yl)-2-fluorobenzamide], in series [1], the inhibition at 2 µM was 83%. For the same compound, the CC50 at 5 days in series [2] came to 36100 nM.

Consider `NC(=O)c1cc(-c2cccnc2[C@H](Cc2cc(F)cc(F)c2)NC(=O)Cn2nc(C(F)F)c3c2C(O)C2CC32)ccc1F` (stereo partly drawn) [Example 212, 5-(2-((1S)-1-(2-(3-(difluoromethyl)-5-hydroxy-3b,4,4a,5-tetrahydro-1H-cyclopropa[3,4]cyclopenta[1,2-c]pyrazol-1-yl)acetamido)-2-(3,5-difluorophenyl)ethyl)pyridin-3-yl)-2-fluorobenzamide], for which, in series [1], the inhibition at 2 µM is 69%. In series [2], this compound gave a CC50 at 5 days greater than 53200 nM.

Take `NC(=O)c1cc(-c2cccnc2[C@H](Cc2cccc(F)c2)NC(=O)Cn2nc(C(F)(F)F)c3ccccc32)ccc1F` [Example 213C, (S)-2-fluoro-5-(2-(2-(3-fluorophenyl)-1-(2-(3-(trifluoromethyl)-1H-indazol-1-yl)acetamido)ethyl)pyridin-3-yl)benzamide]: in series [1], the inhibition at 2 µM amounted to 14%. The same compound registered a CC50 at 5 days in series [2] of 15900 nM.

Consider `NC(=O)c1cc(-c2cccnc2[C@H](Cc2cc(F)cc(F)c2)NC(=O)Cc2cccc3ccccc23)ccc1F` [Example 214, (S)-5-(2-(2-(3,5-difluorophenyl)-1-(2-(naphthalen-1-yl)acetamido)ethyl)pyridin-3-yl)-2-fluorobenzamide], for which the inhibition at 2 µM in series [1] was determined as 8%. This compound also returned a CC50 at 5 days in series [2] of 22200 nM.

On to `COCCOc1ccc(-c2cccnc2[C@H](Cc2cc(F)cc(F)c2)NC(=O)Cn2nc(C(F)F)c3c2C(F)(F)C2CC32)cc1` (stereo partly drawn) [Example 217, 2-(3-(difluoromethyl)-5,5-difluoro-3b,4,4a,5-tetrahydro-1H-cyclopropa[3,4]cyclopenta[1,2-c]pyrazol-1-yl)-N—((S)-2-(3,5-difluorophenyl)-1-(3-(4-(2-methoxyethoxy)phenyl)pyridin-2-yl)ethyl)acetamide], for which the inhibition at 2 µM in series [1] amounted to 92%. This compound also came in with a CC50 at 5 days in series [2] of 29600 nM.

Take `NC(=O)c1cc(-c2ccc[n+]([O-])c2[C@H](Cc2cc(F)cc(F)c2)NC(=O)Cn2nc(C(F)(F)F)c3c2CS(=O)(=O)C3)ccc1F` [Example 218, (S)-3-(3-carbamoyl-4-fluorophenyl)-2-(2-(3,5-difluorophenyl)-1-(2-(5,5-dioxido-3-(trifluoromethyl)-4,6-dihydro-1H-thieno[3,4-c]pyrazol-1-yl)acetamido)ethyl)pyridine 1-oxide]: the inhibition at 2 µM in series [1] is 0%. In series [2], this compound gave a CC50 at 5 days greater than 53200 nM.

As to `CC(=O)N1Cc2c(C(F)(F)F)nn(CC(=O)N[C@@H](Cc3cc(F)cc(F)c3)c3ncccc3-c3ccc(F)c(C(N)=O)c3)c2C1` [Example 219, (S)-5-(2-(1-(2-(5-acetyl-3-(trifluoromethyl)-5,6-dihydropyrrolo[3,4-c]pyrazol-1(4H)-yl)acetamido)-2-(3,5-difluorophenyl)ethyl)pyridin-3-yl)-2-fluorobenzamide], the inhibition at 2 µM in series [1] is 1%. Also, the CC50 at 5 days in series [2] was greater than 53200 nM.

For the compound `NC(=O)c1cc(-c2cccnc2[C@H](Cc2cc(F)cc(F)c2)NC(=O)Cn2nc3c(c2C(F)F)C2CC2C3=O)ccc1F` (stereo partly drawn) [Example 220B, 5-(2-((1S)-1-(2-(3-(difluoromethyl)-5-oxo-3b,4,4a,5-tetrahydro-2H-cyclopropa[3,4]cyclopenta[1,2-c]pyrazol-2-yl)acetamido)-2-(3,5-difluorophenyl)ethyl)pyridin-3-yl)-2-fluorobenzamide], the inhibition at 2 µM in series [1] turned out to be 70%. Further, in series [2], the CC50 at 5 days was found to be 39200 nM.

`Cc1ccc2c(c1C)NC(=O)C2CC(=O)N[C@@H](Cc1cc(F)cc(F)c1)c1ncccc1-c1ccc(F)c(C(N)=O)c1` (stereo partly drawn) [Example 221, 5-(2-((1S)-2-(3,5-difluorophenyl)-1-(2-(6,7-dimethyl-2-oxoindolin-3-yl)acetamido)ethyl)pyridin-3-yl)-2-fluorobenzamide]: the inhibition at 2 µM in series [1] is 1%. Further, half-maximal cytotoxicity in series [2] (CC50 at 5 days) was put at 40500 nM.

With `NC(=O)c1cc(-c2cccnc2[C@H](Cc2cccc(F)c2)NC(=O)Cn2nc(C(F)(F)F)cc2Br)ccc1F` [Example 222B, (S)-5-(2-(1-(2-(5-bromo-3-(trifluoromethyl)-1H-pyrazol-1-yl)acetamido)-2-(3-fluorophenyl)ethyl)pyridin-3-yl)-2-fluorobenzamide], the inhibition at 2 µM in series [1] came to 21%. This compound displayed a CC50 at 5 days in series [2] of 25600 nM.

In the case of `CC(C)Oc1ccc(-c2cccnc2[C@H](Cc2cc(F)cc(F)c2)NC(=O)Cn2nc(C(F)F)c3c2C(F)(F)C2CC32)cc1` (stereo partly drawn) [Example 224, 2-(3-(difluoromethyl)-5,5-difluoro-3b,4,4a,5-tetrahydro-1H-cyclopropa[3,4]cyclopenta[1,2-c]pyrazol-1-yl)-N—((S)-2-(3,5-difluorophenyl)-1-(3-(4-isopropoxyphenyl)pyridin-2-yl)ethyl)acetamide], the inhibition at 2 µM in series [1] was determined as 17%. Also, the CC50 at 5 days in series [2] amounted to 20400 nM.

With `NC(=O)c1cccc(-c2cccnc2[C@H](Cc2cc(F)cc(F)c2)NC(=O)C2CC23C(=O)Nc2ccccc23)c1` (stereo partly drawn) [Example 225, N—((S)-1-(3-(3-carbamoylphenyl)pyridin-2-yl)-2-(3,5-difluorophenyl)ethyl)-2′-oxospiro[cyclopropane-1,3′-indoline]-2-carboxamide], in series [1], the inhibition at 2 µM was determined as 15%. The compound further showed a CC50 at 5 days in series [2] of 23000 nM.

For the compound `NC(=O)c1cccc(-c2cccnc2[C@H](Cc2cc(F)cc(F)c2)NC(=O)Cn2ccc3cnc(N)nc32)c1` [Example 226C, (S)-3-(2-(1-(2-(2-amino-7H-pyrrolo[2,3-d]pyrimidin-7-yl)acetamido)-2-(3,5-difluorophenyl)ethyl)pyridin-3-yl)benzamide], the inhibition at 2 µM in series [1] came to 0%. The same compound yielded a CC50 at 5 days in series [2] greater than 53000 nM.

Consider `CC(C)(C)OC(=O)N1Cc2c(C(F)(F)F)nn(CC(=O)N[C@@H](Cc3cc(F)cc(F)c3)c3ncccc3-c3ccc(F)c(C(N)=O)c3)c2C1` [Example 227, (S)-tert-butyl 1-(2-((1-(3-(3-carbamoyl-4-fluorophenyl)pyridin-2-yl)-2-(3,5-difluorophenyl)ethyl)amino)-2-oxoethyl)-3-(trifluoromethyl)-4,6-dihydropyrrolo[3,4-c]pyrazole-5(1H)-carboxylate], for which the inhibition at 2 µM in series [1] was found to be 1%. In series [2], the CC50 at 5 days turned out to be 14300 nM.

For the compound `NC(=O)c1cc(-c2cccnc2[C@H](Cc2cccc(F)c2)NC(=O)Cn2nc(C(F)(F)F)c3c2CCSC3)ccc1F` [Example 228B, (S)-2-fluoro-5-(2-(2-(3-fluorophenyl)-1-(2-(3-(trifluoromethyl)-6,7-dihydrothiopyrano[4,3-c]pyrazol-1(4H)-yl)acetamido)ethyl)pyridin-3-yl)benzamide], the inhibition at 2 µM in series [1] was determined as 51%. Moreover, the CC50 at 5 days in series [2] is 23400 nM.

For `NC(=O)c1cc(-c2cccnc2[C@H](Cc2cccc(F)c2)NC(=O)Cn2nc(C(F)(F)F)c3c2CCCC3)ccc1F` [Example 229, (S)-2-fluoro-5-(2-(2-(3-fluorophenyl)-1-(2-(3-(trifluoromethyl)-4,5,6,7-tetrahydro-1H-indazol-1-yl)acetamido)ethyl)pyridin-3-yl)benzamide], the inhibition at 2 µM in series [1] was found to be 95%. The same compound returned a CC50 at 5 days in series [2] of 18600 nM.

For `O=C(Cn1nc(C(F)F)c2c1C(F)(F)C1CC21)N[C@@H](Cc1cc(F)cc(F)c1)c1ncccc1-c1ccc(OC(F)(F)F)cc1` (stereo partly drawn) [Example 230, 2-(3-(difluoromethyl)-5,5-difluoro-3b,4,4a,5-tetrahydro-1H-cyclopropa[3,4]cyclopenta[1,2-c]pyrazol-1-yl)-N—((S)-2-(3,5-difluorophenyl)-1-(3-(4-(trifluoromethoxy)phenyl)pyridin-2-yl)ethyl)acetamide], the inhibition at 2 µM in series [1] turned out to be 66%. The CC50 at 5 days in series [2] is 14000 nM.

For the compound `O=C(Cn1nc(C(F)F)c2c1C(F)(F)C1CC21)N[C@@H](Cc1cc(F)cc(F)c1)c1ncccc1-c1ccc(OC(F)F)cc1` (stereo partly drawn) [Example 231, N—((S)-1-(3-(4-(difluoromethoxy)phenyl)pyridin-2-yl)-2-(3,5-difluorophenyl)ethyl)-2-(3-(difluoromethyl)-5,5-difluoro-3b,4,4a,5-tetrahydro-1H-cyclopropa[3,4]cyclopenta[1,2-c]pyrazol-1-yl)acetamide], the inhibition at 2 µM in series [1] was found to be 79%. Also, in series [2], the CC50 at 5 days was 43200 nM.

On to `NC(=O)c1cc(-c2cccnc2[C@H](Cc2cc(F)cc(F)c2)NC(=O)Cn2nc(C(F)(F)F)c3c2CCSC3)ccc1F` [Example 232, (S)-5-(2-(2-(3,5-difluorophenyl)-1-(2-(3-(trifluoromethyl)-6,7-dihydrothiopyrano[4,3-c]pyrazol-1(4H)-yl)acetamido)ethyl)pyridin-3-yl)-2-fluorobenzamide], for which the inhibition at 2 µM in series [1] turned out to be 61%. The CC50 at 5 days in series [2] was found to be 18700 nM.

Turning to `NC(=O)c1cc(-c2cccnc2[C@H](Cc2cc(F)cc(F)c2)NC(=O)Cn2nc(C(F)F)c3c2C(=O)C2CC32)ccc1F` (stereo partly drawn) [Example 233B, 5-(2-((1S)-1-(2-(3-(difluoromethyl)-5-oxo-3b,4,4a,5-tetrahydro-1H-cyclopropa[3,4]cyclopenta[1,2-c]pyrazol-1-yl)acetamido)-2-(3,5-difluorophenyl)ethyl)pyridin-3-yl)-2-fluorobenzamide], the inhibition at 2 µM in series [1] came out at 5%. In series [2], this compound came in with a CC50 at 5 days of 32200 nM.

Turning to `CC1Cc2c(C(F)(F)F)nn(CC(=O)N[C@@H](Cc3cc(F)cc(F)c3)c3ncccc3-c3ccc(F)c(C(N)=O)c3)c2C1` (stereo partly drawn) [Example 234, 5-(2-((1S)-2-(3,5-difluorophenyl)-1-(2-(5-methyl-3-(trifluoromethyl)-5,6-dihydrocyclopenta[c]pyrazol-1(4H)-yl)acetamido)ethyl)pyridin-3-yl)-2-fluorobenzamide], in series [1], the inhibition at 2 µM was 73%. Moreover, the midpoint of cytotoxicity in series [2], the CC50 at 5 days, lay at 15900 nM.
